“Also recorded” adds a separate entry of the source.
How the values were obtained:
[1] = tested on: CC-1 human cervical cell line; assay: In vitro cytotoxicity (SRB growth inhibition) assay, CC-1; type: cell-based; design: dose or concentration left out as unconfirmed; conditions: 72 h
Protocol: The SHetA2, SHetA3, SHetA4, SHet50 and 9-cis-RA compounds were evaluated in 4 cervical carcinoma cell lines. The SiHa, CC-1 and C33a human cervical cell lines were maintained in Minimal Essential Media (MEM) containing Earle's salts and L-glutamine supplemented with nonessential amino acids, 1% sodium pyruvate, 10% fetal bovine serum (FBS) and antibiotic/antimycotic. The HT-3 cervical carcinoma cell line was cultured in McCoy's 5a medium supplemented with 10% FBS and antibiotic/antimycotic. Cells were inoculated into 96 well microtiter plates at densities of 1000 cells/well and incubated for 24 h prior to addition of drugs. Drugs were dissolved in dimethyl sulfoxide (DMSO) and diluted in complete medium, prior to addition to triplicate culture wells to achieve final concentrations of […]. Following drug addition, the plates were incubated for 72 h. The assay was terminated by the addition of cold TCA and the cells were stained with 0.4% sulforhodamine B (SRB) in 1% acetic acid. Bound stain was subsequently solubilized with 10 mM trizma base, and the absorbance was read on an automated plate reader at a wavelength of 560 nm. Growth inhibition was determined by dividing the average Optical Density (OD) of the triplicated treated cultures by the average OD of the triplicate control cultures treated with DMSO solvent only. This ratio was converted into a percentage by multiplying by 100. The potency (concentration required to induce half of the maximal activity—GI50) were derived from dose-response graphs generated with results from 3 to 5 individual experiments using GraphPad Software.

[2] = tested on: NCI human tumor cell line panel; assay: SHetA2 cytotoxicity in NCI human tumor cell line panel; type: cell-based; conditions: 48 h
Protocol: The SHetA2 compound was evaluated in the National Cancer Institute (NCI) human tumor cell line panel by the Developmental Therapeutics Program (DTP). The human tumor cell lines were grown in RPMI 1640 medium containing 5% fetal bovine serum and 2 mM L-glutamine. Cells were inoculated into 96 well microtiter plates at densities ranging from 5,000 to 40,000 cells/well depending on the doubling time of individual cell lines and incubated for 24 h prior to addition of SHetA2. After 24 h, two plates of each cell line were fixed in situ with TCA, to represent a measurement of the cell population for each cell line at the time of drug addition (Tz). Drugs were dissolved in dimethyl sulfoxide (DMSO) and diluted in complete medium containing 50 μg/ml gentamicin, prior to addition to the culture wells. […] […] The absorbance was read on an automated plate reader at a wavelength of 515 nm. Using the seven absorbance measurements (time zero, (Tz), control growth, (C), and test growth in the presence of drug at the five concentration levels (Ti)), the GI50 was calculated from [(Ti−Tz)/(C−Tz)]×100=50. […]

[3] = tested on: OVCAR-3 xenograft tumors; assay: OVCAR-3 xenograft tumor animal model, tumor growth; type: in vivo, mouse; conditions: 10 mg/kg/day by gavage, 5 days/week, 4 weeks; t-test on day 29
Protocol: Groups of 5 mice bearing OVCAR-3 xenografted tumors were gavaged daily with the indicated drugs in sesame oil (▪ closed square) or with sesame oil alone (∘ open circle). Tumor volumes were measured in 3 dimensions with calipers weekly. Each data point represents the average and standard error of the tumor volumes on the indicated treatment day relative to the tumor volume on day zero. Nu/nu mice were injected subcutaneously with one million OVCAR-3 cells and arbitrarily divided into five groups of six mice each. After three weeks of tumor growth, the animals were gavaged with sesame oil, 10 mg/kg/day 4-HPR, or the indicated Het five times per week for four weeks and the tumors were measured once per week. The tumor sizes were averaged and divided by the average size for each group on the day that treatment was initiated (day 0).
The OVCAR-3 cultures were maintained in RPMI media supplemented with 10% fetal bovine serum. All animal experimentation described in this manuscript was conducted in accord with accepted standards of humane animal care. Twenty-five female NU/NU CD-1 female mice (Charles Rivers Laboratories) were housed in a laminar flow room under sterile conditions at 83-85° F. The mice were quarantined for one week prior to the beginning of the study and were allowed access to autoclaved food (Purina 5001 mouse/rat sterilizable diet, St. Louis, Mo.) and water ad libitum. OVCAR-3 cells in log phase growth were harvested by trypsinization, resuspended in RPMI culture medium, and centrifuged at 3,000 rpm for 10 min. The pellets were resuspended in RPMI culture medium at a concentration of 7×10^6 cells/ml before implantation into mice. Animals were injected with 3.5×10^6 cells into the right scapular region with a 24-gauge needle/1 cc tuberculin syringe. Twenty-four hours after tumor implantation, animals were randomized into 5 groups of 5 animals each.
The Hets SHet50, SHetA2 and SHetA4 were synthesized and their receptor specificity determined as previously described (17,19). The 4-HPR compound was a gift from R.W. Johnson Pharmaceutical Research Institute, Raritan, N.J. All retinoids were dissolved in super refined sesame oil (Croda, Inc., Parsippany, N.J.) and stored at −80° C. Since the retinoids are light sensitive, all manipulations involving retinoids were performed under subdued lighting. […] Tumors were measured with calipers weekly, and tumor volumes were calculated using the formula: volume=length×width×height. Tumor growth was determined by the dividing the volume of the tumor at each weekly measurement by the volume on the first day of treatment. Animal weights and clinical signs of overall health status and cutaneous toxicities were recorded weekly.

[4] = tested on: dorsal skin of female Skh hairless mice; assay: Topical irritancy; type: in vivo; conditions: mouse, in vivo
Protocol: Female Skh hairless mice, 6-8 weeks old, were treated topically on the dorsal skin for 4 days over a 2-log concentration dose range with various compounds. Retinoic acid receptor-Hets were evaluated in A, while retinoic acid receptor-independent Flex-Hets were evaluated in B. Daily flaking and abrasion scores were combined to calculate a single cutaneous toxicity score for each mouse. Each treatment group consisted of 4 mice, and group averages were used to plot cutaneous toxicity against doses of the compounds.
Topical irritancy was evaluated according to published procedures (29). Briefly, female Skh hairless mice, 6-8 weeks old, were treated topically on the dorsal skin for 4 days over a 2-log concentration dose range with various compounds. Daily flaking and abrasion scores were combined to calculate a single cutaneous toxicity score for each mouse. Each treatment group consists of 4 mice, and group averages are used to plot cutaneous toxicity against dose of the retinoid compound.

[5] = tested on: EAhy.926 endothelial cells; assay: Endothelial tube branching on matrigel; type: cell-based; conditions: various concentrations (1, 5, 10 μM); scored after twenty hours
Source text: The graph on the left provides quantification of the endothelial branches for each treatment dose.

CC1(C)CC(C)(C)c2cc(NC(=S)Nc3ccc([N+](=O)[O-])cc3)ccc2S1 [SHetA2]
Efficacy: percent growth inhibition relative to the untreated control [1]: 58% | percent growth ([2]; 10 and 100 μM SHetA2, majority of cell lines): negative percent growth levels | GI50 values ([2]; 55 cell lines representing 9 cancer types): micromolar range | growth of xenograft tumors versus sesame oil control [3]: significantly inhibited the growth; also recorded: significantly less | topical irritancy (cutaneous toxicity score) [4]: did not induce topical irritancy | endothelial tube branching (in vitro angiogenesis) [5]: dose-responsive inhibition of angiogenesis

Source: patent publication US20060281806A1, “Treatment and inhibition of disease conditions using flexible heteroarotinoids” (priority 2005, published 2006)
